Like-named read-outs stand apart in the source and are kept apart here.

Common to all, as to format: cell-based
One test has as its system Wi-38. Briefly: MTT cytotoxicity on normal fibroblasts. To be noted: Homo sapiens, WI-38, read-out: Wi-38 IC50.
The test system of the next test is MCF-7. Put plainly: MTT cytotoxicity on MCF-7 breast cancer cells.
In another test the test system is MDA-MB 231. Put plainly: MTT cytotoxicity on MDA-MB 231 breast cancer cells. To be noted: Homo sapiens, MDA-MB-231, read-out: MDA-MB 231 IC50.
Test [1] deals with P53. Put plainly: Quantitative detection of P53 expression in treated MCF-7 cells. To be noted: MCF-7, vs control, mean ± SEM.
Test [2] relates to P53. Briefly: Quantitative detection of P53 expression in treated MDA-MB 231 cells. To be noted: MDA-MB 231, vs control, mean ± SEM.
Test [3] relates to BAX. Briefly: BAX expression in treated MCF-7 cells. The conditions noted are these: for Relative fold change in BAX expression: MCF-7, mean ± SEM; for overexpression of apoptosis regulator BAX: tested cancer cell lines, MCF-7 and MDA-MB 231.
Test [4] has as its system Bcl-2. Put plainly: Bcl-2 expression in treated MCF-7 cells. To be noted: for Relative fold change in Bcl-2 expression: MCF-7, mean ± SEM; for diminished levels of Bcl-2: tested cancer cell lines, MCF-7 and MDA-MB 231.
For test [5], the system named is BAX. Briefly: BAX expression in treated MDA-MB 231 cells. To be noted: MDA-MB 231, mean ± SEM.
Test [6] has as its system Bcl-2. Briefly: Bcl-2 expression in treated MDA-MB 231 cells. To be noted: MDA-MB 231, mean ± SEM.
The subject of test [7] is caspase 3/7. Put plainly: Caspase 3/7 activation assay in MCF-7 cells. To be noted: for Relative fold activation of caspase 3/7: MCF-7 treated with IC50, mean ± SEM; for activation of caspase 3/7: treated breast cancer cell lines (MCF-7 and MDA-MB 231), IC50s.
The test system of test [8] is caspase 3/7. Put plainly: Caspase 3/7 activation assay in MDA-MB 231 cells. To be noted: MDA-MB 231 treated with IC50, mean ± SEM.
Setting [9] is: Homo sapiens, MCF7, read-out: MCF-7 IC50, MTT, mean ± SEM.
[10] abbreviates: read-out: MCF-7 IC50, MTT, mean ± SEM.

For orientation: IC50 means the concentration needed to halve the response being measured. In the case of `CCOC(=O)c1ccc(N2C(=O)C(c3ccccc3)N(c3ccccc3)C2=O)cc1` (centres unmarked) [Compound 8, Ethyl-4-(2,5-dioxo-3,4-diphenylimidazolidin-1-yl)benzoate], the IC50 in the test on Wi-38 amounted to 953 ± 37 nM; in the test on MCF-7 (setting [9]) it was 78 ± 72 nM; in the test on MDA-MB 231 it was 146 ± 34 nM. Further, the “Relative fold change in the P53 expression” value in the test on P53 [1] turned out to be 4.810 ± 0.1014 fold; in the test with P53 [2], 3.733 ± 0.023 fold. For the same compound, the entries for the “Relative fold change in BAX expression” value in the test on BAX [3] and in the test on BAX [5] were 3.195 ± 0.082 fold and 2.479 ± 0.030 fold, respectively. In addition, the “overexpression of apoptosis regulator BAX” value (from here on “overexpression”) in the test with BAX [3] is 2.3–3.3 folds. Also, the results for the “Relative fold change in Bcl-2 expression” value in the test on Bcl-2 [4] and with Bcl-2 [6] were 0.163 ± 0.0035 fold and 0.454 ± 0.010 fold, respectively. For the same compound, in the test on Bcl-2 [4], the “diminished levels of Bcl-2” value was 0.13–0.49 folds. In addition, the “Relative fold activation of caspase 3/7” value is 3.763 ± 0.011 fold in the test on caspase 3/7 [7] and 2.945 ± 0.0885 fold in the test on caspase 3/7 [8]. For the same compound, in the test on caspase 3/7 [7], the “activation of caspase 3/7” value is on record as 2.6–4.1 folds.

Consider `CCOC(=O)c1ccc(NC(=O)C2(OC(=O)CNS(=O)(=O)c3ccccc3)CCCCC2)cc1` [Compound 13, Ethyl 4-(1-(2-(phenylsulfonamido)acetoxy)cyclohexanecarboxamido)benzoate], for which the IC50 turned out to be 590 ± 26 nM in the test with Wi-38, 142 ± 27 nM in the test with MCF-7 (setting [9]) and 513 ± 66 nM in the test on MDA-MB 231.

Turning to `NNC(=O)c1ccc(NC(=O)C2(O)CCCCC2)cc1` [Compound 16, N-(4-(Hydrazinecarbonyl)phenyl)-1-hydroxycyclohexane-1-carboxamide], the IC50 in the test with Wi-38 was determined as 3327 ± 32 nM; in the test with MCF-7 (setting [9]), 968 ± 36 nM; in the test on MDA-MB 231, 1030 ± 36 nM.

As for `O=C(NNC(=S)Nc1ccccc1)c1ccc(NC(=O)C2(O)CCCCC2)cc1` [Compound 17, 1-Hydroxy-N-(4-(2-(phenylcarbamothioyl)hydrazine-1-carbonyl)phenyl)cyclohexane-1-carboxamide], the IC50 in the test with Wi-38 is 1540 ± 122 nM; with MCF-7 (setting [9]), around 80 nM; in the test with MCF-7 (setting [10]), 82 ± 2 nM; in the test with MDA-MB 231 it was 518 ± 81 nM. Besides, the “Relative fold change in the P53 expression” value with P53 [1] is listed as 4.377 ± 0.144 fold. Moreover, the “Relative fold change in BAX expression” value in the test with BAX [3] came to 3.042 ± 0.0365 fold. Further, the “overexpression” value in the test with BAX [3] is 2.3–3.3 folds. Besides, the “Relative fold change in Bcl-2 expression” value with Bcl-2 [4] came out at 0.201 ± 0.0075 fold. Moreover, the “diminished levels of Bcl-2” value in the test with Bcl-2 [4] is on record as 0.13–0.49 folds. Besides, in the test with caspase 3/7 [7], the “Relative fold activation of caspase 3/7” value is on record as 3.677 ± 0.0145 fold. Also, the “activation of caspase 3/7” value in the test on caspase 3/7 [7] was 2.6–4.1 folds.

With `CCOC(=O)c1ccc(NC(=O)C2(OC(=O)c3ccc([N+](=O)[O-])cc3)CCCCC2)cc1` [Compound 11, 1-((4-(Ethoxycarbonyl)phenyl)carbamoyl)cyclohexyl 4-nitrobenzoate], the IC50 in the test with Wi-38 was 516 ± 11 nM; with MCF-7 (setting [9]), 591 ± 35 nM; in the test with MDA-MB 231, 756 ± 175 nM.

As for `CCOC(=O)c1ccc(NC(=O)C2(OC(=O)c3ccc(N=[N+]=[N-])cc3)CCCCC2)cc1` [Compound 10, 1-((4-(Ethoxycarbonyl)phenyl)carbamoyl)cyclohexyl-4-azidobenzoate], the IC50 in the test with Wi-38 is 505 ± 1 nM; in the test on MCF-7 (setting [9]), 439 ± 5 nM; in the test with MDA-MB 231, 470 ± 12 nM.

In the case of `CCOC(=O)c1ccc(NC(=O)C(c2ccccc2)N(C(=O)c2ccccc2I)c2ccccc2)cc1` (centres unmarked) [Compound 4, Ethyl-4-(2-(2-iodo-N-phenylbenzamido)-2-phenylacetamido)benzoate], the figures for the IC50 in the test on Wi-38, in the test with MCF-7 (setting [9]) and with MDA-MB 231 were 418 ± 33 nM, 96 ± 7 nM and 188 ± 44 nM, respectively. Besides, the “Relative fold change in the P53 expression” value in the test on P53 [1] is recorded as 4.137 ± 0.0407 fold; in the test with P53 [2], 3.309 ± 0.110 fold. Besides, the “Relative fold change in BAX expression” value in the test with BAX [3] came out at 2.747 ± 0.1285 fold; with BAX [5], 2.338 ± 0.021 fold. In addition, the “overexpression” value with BAX [3] is on record as 2.3–3.3 folds. Further, the “Relative fold change in Bcl-2 expression” value was 0.233 ± 0.0017 fold in the test with Bcl-2 [4] and 0.496 ± 0.005 fold with Bcl-2 [6]. In the test with Bcl-2 [4], the “diminished levels of Bcl-2” value is on record as 0.13–0.49 folds. The “Relative fold activation of caspase 3/7” value in the test with caspase 3/7 [7] is on record as 3.113 ± 0.1012 fold; with caspase 3/7 [8], 2.618 ± 0.1615 fold. Moreover, in the test with caspase 3/7 [7], the “activation of caspase 3/7” value is 2.6–4.1 folds.

`CCOC(=O)c1ccc(NC(=O)C2(OC(=O)c3ccc(NS(=O)(=O)c4ccccc4)cc3)CCCCC2)cc1` [Compound 12, 1-((4-(Ethoxycarbonyl)phenyl)carbamoyl)cyclohexyl-4-(phenylsulfonamido)benzoate]: the half-maximal inhibitory concentration (IC50) in the test on Wi-38 worked out at 633 ± 1 nM; in the test on MCF-7 (setting [9]), 65 ± 50 nM; in the test with MDA-MB 231 it was 135 nM. Further, the results for the “Relative fold change in the P53 expression” value in the test with P53 [1] and in the test on P53 [2] were 5.168 ± 0.0676 fold and 4.312 ± 0.075 fold, respectively. Also, the “Relative fold change in BAX expression” value with BAX [3] was 3.337 ± 0.1485 fold; in the test on BAX [5], 2.683 ± 0.065 fold. Besides, the “overexpression” value with BAX [3] is 2.3–3.3 folds. Besides, the “Relative fold change in Bcl-2 expression” value in the test on Bcl-2 [4] is 0.129 ± 0.0027 fold; in the test with Bcl-2 [6], 0.376 ± 0.037 fold. Moreover, the “diminished levels of Bcl-2” value with Bcl-2 [4] was 0.13–0.49 folds. Besides, the “Relative fold activation of caspase 3/7” value turned out to be 4.105 ± 0.0795 fold in the test with caspase 3/7 [7] and 3.304 ± 0.0745 fold with caspase 3/7 [8]. In the test on caspase 3/7 [7], the “activation of caspase 3/7” value was 2.6–4.1 folds.

Regarding `COc1cccc2c1C(=O)c1c(O)c3c(c(O)c1C2=O)C[C@@](O)(C(=O)CO)C[C@@H]3O[C@H]1C[C@H](N)[C@H](O)[C@H](C)O1` [Doxorubicin, reference compound], the values for the IC50 in the test with Wi-38, in the test on MCF-7 (setting [9]) and in the test with MDA-MB 231 were 272 ± 53 nM, 478 ± 76 nM and 2830 ± 173 nM, respectively. In addition, the “Relative fold change in the P53 expression” value in the test on P53 [1] amounted to 2.148 ± 0.174 fold; in the test with P53 [1] (listed as doxorubicin), 2.1 fold; in the test with P53 [2], 1.623 ± 0.122 fold; in the test on P53 [2] (listed as doxorubicin), 1.6 fold. The “Relative fold change in BAX expression” value in the test on BAX [3] was 1.556 ± 0.054 fold; with BAX [5] it was 1.232 ± 0.019 fold. Besides, the “Relative fold change in Bcl-2 expression” value is on record as 0.592 ± 0.031 fold in the test with Bcl-2 [4] and 0.798 ± 0.044 fold in the test on Bcl-2 [6]. The “Relative fold activation of caspase 3/7” value in the test with caspase 3/7 [7] is on record as 1.881 ± 0.028 fold; in the test on caspase 3/7 [8], 1.272 ± 0.074 fold.

Regarding `CCOC(=O)c1ccc(NC(=O)C(c2ccccc2)N(C(=O)c2cc([N+](=O)[O-])cc([N+](=O)[O-])c2)c2ccccc2)cc1` (centres unmarked) [Compound 6, Ethyl-4-(2-(3,5-dinitro-N-phenylbenzamido)-2-phenylacetamido)benzoate], the IC50 in the test on Wi-38 was determined as 538 ± 25 nM; with MCF-7 (setting [9]) it was 143 ± 16 nM; with MDA-MB 231, 370 ± 94 nM.

As to `CCOC(=O)c1ccc(NC(=O)C(c2ccccc2)N(C(=O)C(F)(F)F)c2ccccc2)cc1` (centres unmarked) [Compound 2, Ethyl-4-(-phenyl-2-(2,2,2-trifluoro-N-phenylacetamido)acetamido)benzoate], the results for the IC50 in the test with Wi-38, in the test on MCF-7 (setting [9]) and in the test with MDA-MB 231 were 147 ± 20 nM, 369 ± 14 nM and 472 ± 13 nM, respectively.

For `CCOC(=O)c1ccc(NC(=O)C(c2ccccc2)N(C(=O)c2ccccc2C)c2ccccc2)cc1` (centres unmarked) [Compound 3, Ethyl-4-(2-(2-methyl-N-phenylbenzamido)-2-phenylacetamido)benzoate], the IC50 in the test with Wi-38 was 1330 ± 84 nM. Moreover, the IC50 with MCF-7 (setting [9]) is around 80 nM. Besides, the IC50 in the test on MCF-7 (setting [10]) is 86 ± 16 nM. Further, in the test on MDA-MB 231, the IC50 was 306 ± 14 nM. Also, the “Relative fold change in the P53 expression” value with P53 [1] worked out at 4.110 ± 0.1014 fold. For the same compound, in the test on BAX [3], the “Relative fold change in BAX expression” value is recorded as 2.448 ± 0.057 fold and the “overexpression” value is recorded as 2.3–3.3 folds. In the test with Bcl-2 [4], the “Relative fold change in Bcl-2 expression” value is 0.217 ± 0.006 fold and the “diminished levels of Bcl-2” value is on record as 0.13–0.49 folds. For the same compound, in the test on caspase 3/7 [7], the “Relative fold activation of caspase 3/7” value is recorded as 3.470 ± 0.0485 fold and the “activation of caspase 3/7” value was 2.6–4.1 folds.

As to `CCOC(=O)c1ccc(NC(=O)C(c2ccccc2)N(C(=O)c2ccccc2[N+](=O)[O-])c2ccccc2)cc1` (centres unmarked) [Compound 5, Ethyl-4-(2-(2-nitro-N-phenylbenzamido)-2-phenylacetamido)benzoate], the values for the IC50 in the test with Wi-38, in the test with MCF-7 (setting [9]) and in the test with MDA-MB 231 were 570 ± 72 nM, 229 ± 42 nM and 302 ± 24 nM, respectively.

As to `CCOC(=O)c1ccc(NC(=O)C2(OC(=O)c3ccccc3C)CCCCC2)cc1` [Compound 9, 1-((4-(Ethoxycarbonyl)phenyl)carbamoyl)cyclohexyl-2-methylbenzoate], the values for the IC50 in the test on Wi-38, with MCF-7 (setting [9]) and in the test with MDA-MB 231 were 608 ± 12 nM, 440 ± 6 nM and 445 ± 4 nM, respectively.

Turning to `O=C(O)OC1(C(=O)Nc2ccc(C(=O)O)cc2)CCCCC1` [Compound 15, 4-(1-(Carboxyoxy)cyclohexane-1-carboxamido)benzoic acid], the IC50 stood at 827 ± 4 nM in the test with Wi-38, 264 ± 159 nM in the test on MCF-7 (setting [9]) and 261 ± 25 nM with MDA-MB 231.

(Values after paper PMC10509784 (RSC Advances, 2023).)
